Results from paper PMC9055250, “Design, synthesis, and biological evaluation of new 6,N^2-diaryl-1,3,5-triazine-2,4-diamines as anticancer agents selectively targeting triple negative breast cancer cells” (RSC Advances, 2020).
Like-named read-outs stand apart in the source and are kept apart here.

What was measured:
[1] = tested on: MDA-MB231 breast cancer cells; assay: MTT in vitro cytotoxicity assay, MDA-MB231; assay type: cell-based; settings: for viability at 10 µM / GI50: Homo sapiens, MDA-MB-231; for viability at 10 µM: read-out: Cell viability (%) MDA-MB231
Procedure: (§1) The synthesized compounds were tested against three breast tumor cell lines (MDA-MB231, SKBR-3 and MCF-7) and epithelial breast cell line (MCF-10A) by the MTT colorimetric assay.[29,30] All cells were obtained from the American Type Culture Collection. The cancerous cell lines were grown in Dulbecco's modified eagle medium (DMEM) supplemented with 10% fetal bovine serum (FBS) and 1% pen-strep antibiotic. The MCF-10A human epithelial breast cell line was grown in the complete mammary epithelial growth medium containing horse serum 5%, epithelial growth factor 20 ng mL^−1, hydrocortisone […], cholera toxin 100 ng mL^−1, insulin 10 μg mL^−1, and pen-step antibiotic.[31] For the cytotoxic assay, 20 to 75 × 10^3 cells per mL (based on the doubling time for each cell line) were seeded in 96-well plates and the plates were incubated overnight in a humidified air atmosphere at 37 °C in 5% CO2 incubator.
(§2) The cells were then treated with compounds at different concentrations. After 72 h of incubation, the MTT (0.5 mg mL^−1) was added to wells, followed by 4 h of incubation. The culture medium was then removed and DMSO (100 μL per well) was added and the absorbance values were measured at 570 nm using the multi-well Tecan NanoQuant, Infinite m200 Pro plate reader. Growth inhibitory values (GI50) were calculated using GraphPad Prism 7 (GraphPad Software, San Diego, USA) by nonlinear regression analysis. Three independent experiments were carried out and the data was expressed in mean ± standard deviation (SD). The concentration–response curves used for the GI50 calculation are available in ESI. ^†

[2] = tested on: SKBR-3 breast cancer cells; assay: MTT in vitro cytotoxicity assay, SKBR-3; assay type: cell-based; settings: Homo sapiens; for viability at 10 µM: SK-BR-3, 10 μM, 72 h, read-out: Cell viability (%) SKBR-3; for GI50: SK-BR-3, 72 h, read-out: GI50 ± SD SKBR-3
Procedure: as §1, §2

[3] = tested on: MCF-7 breast cancer cells; assay: MTT in vitro cytotoxicity assay, MCF-7; assay type: cell-based; settings: Homo sapiens; for viability at 10 µM: MCF7, 10 μM, 72 h, read-out: Cell viability (%) MCF-7; for GI50: MCF7, 72 h, read-out: GI50 ± SD MCF-7
Procedure: as §1, §2

[4] = tested on: MCF-10A human epithelial breast cell line; assay: MTT in vitro cytotoxicity assay, MCF-10A; assay type: cell-based; settings: 72 h, read-out: GI50 ± SD MCF-10A
Procedure: as §1, §2

[5] = tested on: MDA-MB231 breast cancer cells; assay: Time-dependent cytotoxicity (MTT); assay type: cell-based; settings: for inhibition at 0.125 µM / growth inhibition at 125 nM, 12 h: MDA-MB231, 125 nM
Procedure: MDA-MB231 breast cancer cells were grown in DMEM supplemented with 10% FBS and 1% pen-strep antibiotic. The cells were seeded in 96-well plates (20 × 10^3 cells per mL) and the plates were incubated overnight in a humidified air atmosphere at 37 °C in 5% CO2 incubator. The cells were then treated with compounds 16 or 18 in concentrations ranging from 0.2 nM to 125 nM for 12, 24, 48, and 72 h. After specified time for each experiment, MTT (0.5 mg mL^−1) was added to wells, followed by 4 h of incubation. The culture medium was then removed and DMSO (100 μL per well) was added and the absorbance values were measured at 570 nm using the multi-well Tecan NanoQuant, Infinite m200 Pro plate reader. GI50 values were calculated using GraphPad Prism 7 (GraphPad Software, San Diego, USA) by nonlinear regression analysis. All the time-dependent experiments at different times were carried out using the same passage of MDA-MB231 cells. Three independent experiments were carried out and the data were expressed in mean ± standard deviation (SD).

MDA-MB231 cells [6] = assay: Acridine orange/propidium iodide double staining, fluorescence microscopy; assay type: cell-based; settings: MDA-MB231, 24 h after treatment; 16 at 125 and 250 nM, 18 at 2.5 and 5 nM
Procedure: Fluorescence microscopy was used to visualize the apoptosis in cancer cells with AO/PI staining.[20] MDA-MB231 cells were grown in 6-well plate (5 × 10^5 cells per well). […] One of the six wells was treated with 1% DMSO and served as a negative control, another well treated with methotrexate served as a positive control. After 24 h of incubation, the wells were washed with phosphate buffered saline (PBS) three times and 100 μL of AO (100 μg mL^−1 in PBS) and 25 μL of PI (100 μg mL^−1 in PBS) in 1 mL of media were added to each well. The plate was then observed under a motorized inverted fluorescent microscope (Eclipse Ti2-E, Nikon). Three independent experiments at each concentration were carried out.

MDA-MB231 cells [7] = assay: Live cell imaging with AO/PI; assay type: cell-based; settings: MDA-MB231, 10 μM, 4 h
Procedure: MDA-MB231 cells (1 × 10^6 cells) were seeded in a Petri dish and incubated overnight in a humidified air atmosphere at 37 °C in 5% CO2 incubator. Then, the Petri dish was washed with PBS three times and 300 μL of AO (100 μg mL^−1 in PBS) and 75 μL of PI (100 μg mL^−1 in PBS) in 3 mL of media were added to the Petri dish. The cells were treated with 10 μM of compound 18 and the dish was then transferred to motorized inverted fluorescent microscope (Eclipse Ti2-E, Nikon). The pictures were taken every 10 minutes for 4 h and intercalated into video (see ESI ^†).

[8] = 72 h, MTT, read-out: GI50 ± SD MDA-MB231
[9] = MDA-MB231, calculated from GI50, read-out: Experimental pGI50 (converted)
[10] = Homo sapiens, MDA-MB-231, 12 h, read-out: growth inhibition at 125 nM, 12 h
[11] = Homo sapiens, MDA-MB-231, MDA-MB231, 72 h, read-out: GI50 ± SD, 72 h
[12] = Homo sapiens, MDA-MB-231, MDA-MB231, 24 h, concentration used in Fig. 3

## COc1cc(-c2nc(N)nc(Nc3cccc(C)c3)n2)cc(OC)c1OC [Compound 15, N ^2-(3-Methylphenyl)-6-(3,4,5-trimethoxyphenyl)-1,3,5-triazine-2,4-diamine]
[1]; 72 h, MTT
  viability at 10 µM: 14%
[1]; [8]
  GI50: 2200 ± 200 nM
[1]; [9]
  GI50: 2190 nM
[2]
  viability at 10 µM: 43%
  GI50: 6000 ± 100 nM
[3]
  viability at 10 µM: 86%
  GI50: > 20000 nM
[4]
  GI50: > 20000 nM
other
  melting point: 192 to 194 °C

## COc1cc(-c2nc(N)nc(Nc3ccc(Cl)cc3)n2)cc(OC)c1OC [Compound 16, N ^2-(4-Chlorophenyl)-6-(3,4,5-trimethoxyphenyl)-1,3,5-triazine-2,4-diamine]
[1]; 72 h, MTT
  viability at 10 µM: 20%
[1]; [8]
  GI50: 7 ± 0.01 nM
[1]; [9]
  GI50: 7.08 nM
[2]
  viability at 10 µM: 48%
  GI50: 300 ± 40 nM
[3]
  viability at 10 µM: 52%
  GI50: 12500 ± 200 nM
[4]
  GI50: > 20000 nM
[5]; [10]
  inhibition at 0.125 µM: 17%
[5]; Homo sapiens, MDA-MB-231, 24 h, read-out: growth inhibition at 125 nM, 24 h
  inhibition at 0.125 µM: 61%
[5]; Homo sapiens, MDA-MB-231, 48 h, read-out: growth inhibition at 125 nM, 48 h
  inhibition at 0.125 µM: 75%
[5]; [11]
  GI50: 7 ± 0.6 nM
[5]; 12 h
  growth inhibition at 125 nM, 12 h: no significant inhibition of the cell growth
MDA-MB231 cells [6]
  cell morphology, AO/PI double staining: signs of apoptosis
other
  melting point: 209 to 211 °C

## COc1cc(-c2nc(N)nc(Nc3ccc(Br)cc3)n2)cc(OC)c1OC [Compound 17, N ^2-(4-Bromophenyl)-6-(3,4,5-trimethoxyphenyl)-1,3,5-triazine-2,4-diamine]
[1]; 72 h, MTT
  viability at 10 µM: 24%
[1]; [8]
  GI50: 8 ± 0.5 nM
[1]; [9]
  GI50: 7.94 nM
[2]
  viability at 10 µM: 43%
  GI50: 170 ± 10 nM
[3]
  viability at 10 µM: 48%
  GI50: > 20000 nM
[4]
  GI50: > 20000 nM
other
  melting point: 217 to 219 °C

## COc1cc(-c2nc(N)nc(Nc3ccc(C)cc3)n2)cc(OC)c1OC [Compound 18, N ^2-(4-Methylphenyl)-6-(3,4,5-trimethoxyphenyl)-1,3,5-triazine-2,4-diamine]
[1]; 72 h, MTT
  viability at 10 µM: 14%
[1]; [8]
  GI50: 1 ± 0.01 nM
[1]; [9]
  GI50: 2 nM
[1]; MDA-MB231
  fold more active than methotrexate: 10 fold
  fold more potent than nilotinib: 40 fold
[2]
  viability at 10 µM: 37%
  GI50: 210 ± 10 nM
[3]
  viability at 10 µM: 62%
  GI50: > 20000 nM
[4]
  GI50: > 20000 nM
[5]; [10]
  inhibition at 0.125 µM: 15%
[5]; [12]
  IC20: 2.5 nM
  IC50: 5 nM
[5]; Homo sapiens, MDA-MB-231, MDA-MB231, 24 h, read-out: GI50 ± SD, 24 h
  GI50: 5 ± 0.1 nM
[5]; Homo sapiens, MDA-MB-231, MDA-MB231, 48 h, read-out: GI50 ± SD, 48 h
  GI50: 4 ± 0.3 nM
[5]; [11]
  GI50: 1 ± 0.02 nM
[5]; 12 h
  growth inhibition at 125 nM, 12 h: no significant inhibition of the cell growth
MDA-MB231 cells [6]
  cell morphology, AO/PI double staining: signs of apoptosis
MDA-MB231 cells [7]
  morphological changes in live cell imaging: inducing apoptosis

## COc1ccc(Nc2nc(N)nc(-c3cc(OC)c(OC)c(OC)c3)n2)cc1 [Compound 19, N ^2-(4-Methoxyphenyl)-6-(3,4,5-trimethoxyphenyl)-1,3,5-triazine-2,4-diamine]
[1]; 72 h, MTT
  viability at 10 µM: 20%
[1]; [8]
  GI50: 10 ± 1 nM
[1]; [9]
  GI50: 10 nM
[1]; MDA-MB231, para- vs ortho-/meta-substituted ring B (13 vs 19, 14 vs 16, 15 vs 18)
  fold increase in antiproliferative activity over regioisomer: 200 fold
[2]
  viability at 10 µM: 48%
  GI50: 270 ± 20 nM
[3]
  viability at 10 µM: 52%
  GI50: > 20000 nM
[4]
  GI50: > 20000 nM
other
  melting point: 195 to 197 °C

## COc1cc(-c2nc(N)nc(Nc3ccc(OC(F)(F)F)cc3)n2)cc(OC)c1OC [Compound 20, N ^2-(4-(Trifluoromethoxy)phenyl)-6-(3,4,5-trimethoxyphenyl)-1,3,5-triazine-2,4-diamine]
[1]; 72 h, MTT
  viability at 10 µM: 20%
[1]; [8]
  GI50: 1500 ± 100 nM
[1]; [9]
  GI50: 1480 nM
[2]
  viability at 10 µM: 45%
  GI50: 5000 ± 350 nM
[3]
  viability at 10 µM: 51%
  GI50: > 20000 nM
[4]
  GI50: > 20000 nM
other
  melting point: 179 to 181 °C

## COc1cc(-c2nc(N)nc(Nc3ccc(C(C)C)cc3)n2)cc(OC)c1OC [Compound 21, N ^2-(4-Isopropylphenyl)-6-(3,4,5-trimethoxyphenyl)-1,3,5-triazine-2,4-diamine]
[1]; 72 h, MTT
  viability at 10 µM: 9%
[1]; [8]
  GI50: 40 ± 2 nM
[1]; [9]
  GI50: 39.8 nM
[2]
  viability at 10 µM: 42%
  GI50: 1100 ± 50 nM
[3]
  viability at 10 µM: 49%
  GI50: 10700 ± 1100 nM
[4]
  GI50: > 20000 nM
other
  melting point: 190 to 192 °C
